Laboratory results taken from US8101766B2, “Crystalline form of a biphenyl compound” (Theravance, Inc., priority 2004, dated 2012).

How the values were obtained:
[1] = Dynamic moisture sorption (DMS) assessment; type: physicochemical; conditions: for deliquescence: exposed to atmospheric moisture / DMS
Experimental: Dynamic Moisture Sorption Assessment
A dynamic moisture sorption (DMS) assessment (also known as a moisture sorption-desorption profile) was performed for a hand ground sample of a crystalline 1,2-ethanedisulfonic acid salt of biphenyl-2-ylcarbamic acid 1-[2-(2-chloro-4-{[(R)-2-hydroxy-2-(8-hydroxy-2-oxo-1,2-dihydroquinolin-5-yl)ethylamino]methyl}-5-methoxyphenylcarbamoyl)ethyl]piperidin-4-yl ester of Preparation 18 using a VTI atmospheric microbalance, SGA-100 system (VTI Corp., Hialeah, Fla. 33016). A sample size of approximately 10 mg was used and the humidity was set at the ambient value at the start of the analysis. A typical DMS analysis consisted of three scans: ambient to 2% relative humidity (RH), 2% RH to 90% RH, 90% RH to 5% RH at a scan rate of 5% RH/step. The mass was measured every two minutes and the RH was changed to the next value (+/−5% RH) when the mass of the sample was stable to within 0.01% for 5 consecutive points.

[2] = Thermal analysis (DSC and TGA); type: physicochemical; conditions: DSC traces, samples of Example 6 and Example 2
Experimental: Differential scanning calorimetry (DSC) was performed using a TA Instruments Model Q-10 module with a Thermal Analyst controller. Data were collected and analyzed using TA Instruments Thermal Solutions software. A sample of about 1 mg was accurately weighed into an aluminum pan with lid. The sample was evaluated using a linear heating ramp of 5° C./min from ambient temperature to approximately 300° C. The DSC cell was purged with dry nitrogen during use. A representative DSC trace for a sample of a crystalline 1,2-ethanedisulfonic acid salt of biphenyl-2-ylcarbamic acid 1-[2-(2-chloro-4-{[(R)-2-hydroxy-2-(8-hydroxy-2-oxo-1,2-dihydroquinolin-5-yl)ethylamino]methyl}-5-methoxyphenylcarbamoyl)ethyl]piperidin-4-yl ester of Example 6 is shown in FIG. 1 and a representative DSC trace for a sample of Example 2 is shown in FIG. 2.
Thermogravimetric analysis (TGA) was performed using a TA Instruments Model Q-50 module equipped with high resolution capability. Data were collected and analyzed using TA Instruments Thermal Solutions software. A sample weighing about 10 mg was placed onto a platinum pan and scanned with a high resolution-heating rate from ambient temperature to 300° C. The balance and furnace chambers were purged with nitrogen flows during use. […]

## Biphenyl-2-ylcarbamic Acid 1-[2-(2-Chloro-4-{[(R)-2-hydroxy-2-(8-hydroxy-2-oxo-1,2-dihydroquinolin-5-yl)ethylamino]methyl}-5-methoxyphenylcarbamoyl)-ethyl]piperidin-4-yl Ester 1,2-Ethanedisulfonic Acid Salt
[1]; DMS
  sorption/desorption profile: reversible
[1]; DMS trace, scans 2% RH to 90% RH, hand ground sample of Preparation 18
  hygroscopicity: < 9%
[1]
  deliquescence: not deliquescent
[1]; listed as crystalline 1,2-ethanedisulfonic acid salts of the compound of formula I
  deliquescence: not to be deliquescent
[1]; humidity range of 40% RH to 75% RH
  weight gain: less than 2.5%
[2]
  thermal stability: temperature below which no thermal decomposition: ≥ 200 °C
